Experimental findings from patent US20240336595A1, “BIFUNCTIONAL COMPOUNDS FOR DEGRADING BTK WITH DIMINISHED IMID ACTIVITY” (NURIX THERAPEUTICS, INC., priority 2021, published 2024) are described below.

The structures appear in SMILES notation. “Also recorded” adds a separate entry of the source.

One experiment concerns the target T1, tumor-expressed BTK (Homo sapiens, UniProt Q06187).
T1 construct: endogenous in cells; host or cells: TMD8 cells (human ABC-DLBCL) grown intracranially in CB.17 SCID mice
The experiment can be described thus: Intracranial TMD8 tumor model, BTK remaining in TMD8 cells. The class given is in vivo, female CB.17 SCID mice. Particulars: 90 mg/kg orally every day for twelve days, vs vehicle. Here is the method:
TMD8 cells were implanted into female CB.17 SCID mice by intracranial injection of 5E5 TMD8 cells. Treatment with compound 1 begun the following day. Mice were treated orally every day for twelve days with either vehicle or 90 mg/kg of Compound 1. Brains were then harvested, dissociated into single cell suspensions and BTK level in TMD8 cells was assessed by flow cytometry. TMD8 cells in dissociated brain tissue were identified by human-specific surface markers (CD20+HLA+) and total numbers of TMD8 cells per brain is reported in (A, tumor burden). Percent BTK remaining in TMD8 cells (B) was calculated according to the below formula:
100*(tumor BTK MFI−background MFI)/(peak MFI−background MFI),
where background MFI and peak MFI were calculated using TMD8 cells treated, in vitro, overnight with 1 μM compound 1 or DMSO control, respectively. In FIG. 8,**** p<0.0001; Welch's t-test was used to compare mice treated with compound 1 to mice treated with vehicle.

Another experiment concerns Aiolos. The experiment can be described thus: IMiD activity: Aiolos degradation in PBMCs by flow cytometry. The note with it: human PBMCs, 24 hours. The class given is cell-based. Here is the method:
In addition, Compounds 1-24 were assayed for IMiD activity. Frozen human peripheral blood mononuclear cells (PBMCs) were thawed and treated with DMSO or compound for 24 hours and then fixed and permeabilized using a Foxp3/Transcription Factor Fixation/Permeabilization Kit (eBioscience, 00-5523). Cells were stained with fluorophore-conjugated antibodies against CD20 (Biolegend 302330), CD3 (BD Pharmingen 552127), and Aiolos (Biolegend 371106). An additional set of DMSO-treated PBMCs was stained for CD20, CD3, and an AlexaFluor 647-conjugated mouse IgG1 isotype control antibody (Biolegend 400136). Stained cells were run on an Attune NxT Acoustic Focusing Flow Cytometer (Thermo-Fisher A29004), and data was analyzed using FlowJo (v10.5.3) and GraphPad Prism (v7.00) software. Single lymphocytes were gated for B cells (CD20+CD3-) and T cells (CD3+CD20-), and the geometric mean fluorescence intensity (MFI) of Aiolos was calculated for each population. The MFI of the isotype control was calculated for each population and used to quantify background staining. Percent Aiolos degradation was calculated for each compound-treated sample using the following equation: […]
DC50 is the compound concentration degrading 50% of Aiolos. Dmax is the maximum percent Aiolos degradation in the assay.

Experiment [1] concerns the target T2, BTK (Mus musculus, UniProt P35991). The experiment can be described thus: BTK level in B cells of dosed mice. The class given is in vivo, C57BL/6 mice. Set-up: Single cell suspensions from each tissue were permeabilized and stained for lineage markers and intracellular BTK; from tissue. The note with it: 30 mg/kg in water bottle; blood, spleens, peritoneum and bone marrow. Here is the method:
A separate group of mice received vehicle formulation as control. Blood spleens and femurs for each treated mice were harvested at the end of the study. Peritoneal lavage was also performed with PBS to harvest peritoneal resident lymphocyte.
To evaluate level of BTK in B cells, Single cell suspensions from each tissue were permeabilized and stained for lineage markers and intracellular BTK. B cells were gated on B220+ TCRbeta−, and T cells were gated on B220− and TCRbeta+.

Experiment [2] concerns the target T2, BTK. The experiment can be described thus: BTK level in spleen B cells after NP-KLH immunization. The class given is in vivo, Mice. Set-up: from tissue; host or cells: mouse spleen B cells (CD19+ TCRbeta-). Here is the method:
Mice were immunized by intraperitoneal injection of 200 μL of immunogen containing 100 μg NP-32-KLH (Biosearch Technologies, Cat. N-5060-25,Lot. 156285-01) and 1% Alum (Alhydrogel, 2%, Invivogen Cat. Vac-alu-250, Batch 0001715532, Exp. July 2022), prepared in phosphate buffered saline. Group 1 mice were not immunized and used as control. Mice in Group 2 to 5 were dosed orally once a day from Day 1 to Day 7 with compounds or vehicle for six additional days and then sacrificed the following day. Splenocytes and bone marrow were harvested 24 hours following the final dosing of compound on Day 7. Spleens harvested at the end of the study were dissociated, and red blood cells were lysed with ammonium-chloride-potassium (ACK) lysis buffer. 1 million cells per tissue were stained for each flow cytometry panel.
Cells were permeabilized and stained for lineage markers and intracellular BTK. B cells were gated on CD19+ TCRbeta−, and T cells were gated on CD19− and TCRbeta+.

The test system of experiment [3] is Experimental autoimmune encephalomyelitis (EAE). The experiment can be described thus: Experimental autoimmune encephalomyelitis (EAE) model. The class given is in vivo, C57BL/6 mice. Here is the method:
EAE was induced in C57BL/6 mice by immunization with an emulsion of MOG1-125 in complete Freund's adjuvant (CFA), followed by administration of pertussis toxin in PBS, first on the day of immunization (Day 0) and then again the following day (Day 1).
Dosing of all mice started on Day −1 and continued through Day 22. Fingolimod (FTY720, Gilenya) is the a commonly used positive control in this model.
Statistical significance was determined between vehicle control and treated groups based on the end clinical scores using Wilcoxon's non-parametric test.
Statistical analysis: Demyelination (anti-MBP) with Wilcoxon's non-parametric test; inflammatory foci or apoptosis with two-tailed Student's t-test.

T2 sequence (P35991 whole entry): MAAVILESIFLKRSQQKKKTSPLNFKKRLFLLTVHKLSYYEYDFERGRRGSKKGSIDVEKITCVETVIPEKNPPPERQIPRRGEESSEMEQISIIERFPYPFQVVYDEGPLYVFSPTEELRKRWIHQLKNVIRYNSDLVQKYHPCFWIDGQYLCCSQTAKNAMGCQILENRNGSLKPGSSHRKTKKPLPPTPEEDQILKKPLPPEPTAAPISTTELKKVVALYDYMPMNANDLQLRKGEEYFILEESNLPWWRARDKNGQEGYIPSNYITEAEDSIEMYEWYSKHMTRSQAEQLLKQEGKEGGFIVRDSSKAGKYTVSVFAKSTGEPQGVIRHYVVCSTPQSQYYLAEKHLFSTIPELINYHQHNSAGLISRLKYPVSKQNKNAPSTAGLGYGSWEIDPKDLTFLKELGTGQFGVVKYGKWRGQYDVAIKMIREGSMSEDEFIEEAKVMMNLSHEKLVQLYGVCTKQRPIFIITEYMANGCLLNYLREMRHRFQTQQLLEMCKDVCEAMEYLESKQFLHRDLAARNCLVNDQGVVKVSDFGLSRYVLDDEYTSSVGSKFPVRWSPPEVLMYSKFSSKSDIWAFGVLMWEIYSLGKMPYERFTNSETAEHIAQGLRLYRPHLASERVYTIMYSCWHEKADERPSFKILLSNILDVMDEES
T1 sequence (Q06187 whole entry): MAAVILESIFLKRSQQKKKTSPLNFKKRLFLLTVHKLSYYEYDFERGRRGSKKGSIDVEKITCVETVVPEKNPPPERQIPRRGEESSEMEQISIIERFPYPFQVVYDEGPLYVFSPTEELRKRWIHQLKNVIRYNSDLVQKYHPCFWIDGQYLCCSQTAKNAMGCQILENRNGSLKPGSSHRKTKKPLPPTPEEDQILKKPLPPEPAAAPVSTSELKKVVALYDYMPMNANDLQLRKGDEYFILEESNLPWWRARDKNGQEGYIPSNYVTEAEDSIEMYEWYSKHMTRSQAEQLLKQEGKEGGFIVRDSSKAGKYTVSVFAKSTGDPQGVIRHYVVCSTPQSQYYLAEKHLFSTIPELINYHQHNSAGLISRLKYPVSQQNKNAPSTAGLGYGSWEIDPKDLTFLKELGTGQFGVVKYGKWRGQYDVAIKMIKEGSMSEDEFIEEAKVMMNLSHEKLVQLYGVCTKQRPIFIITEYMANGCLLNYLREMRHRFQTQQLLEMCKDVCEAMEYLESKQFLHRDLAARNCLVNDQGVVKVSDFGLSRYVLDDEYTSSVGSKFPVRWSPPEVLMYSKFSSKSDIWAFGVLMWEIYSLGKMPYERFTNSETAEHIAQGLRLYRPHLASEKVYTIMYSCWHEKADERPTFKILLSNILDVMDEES

As to `CN1CCN([C@@H]2CCCN(c3cnc(C(N)=O)c(Nc4ccc(C5CCN(CC6CCN(c7ccc(C(=O)N[C@H]8CCC(=O)NC8=O)nc7)CC6)CC5)cc4)n3)C2)C1=O` [Compound 1], the “BTK in TMD8 tumor cells” value is “degradation of tumor-expressed BTK” at tumor-expressed BTK and “degraded BTK” at tumor-expressed BTK (listed as compound 1). Moreover, it took 631 nM to reach half-maximal degradation in the experiment with Aiolos (compound concentration degrading 50% of Aiolos) (DC50). This compound had a Dmax in the experiment with Aiolos (maximum percent Aiolos degradation in the assay) of 18.7%. Moreover, the “BTK level in B cells” value at BTK [1] is reported as “robust BTK degradation”. Also, the “BTK degradation in spleens” value at BTK [2] (NP-KLH immunized mice, oral once a day) is given as “robust BTK degradation”. For the same compound, the “BTK levels (percent BTK remaining in B cells)” value on BTK [2] (spleen, 24 hours after the final dose, normalized to naive group) is listed as 13.4 % of baseline. Besides, in experiment [3] (EAE, 30 mg/kg, compared with ibrutinib 30 mg/kg), the mean clinical score result is reported as “superior to Ibrutinib; also recorded: lower mean clinical score than ibrutinib”. Besides, the EAE clinical scores entry in experiment [3] (prophylactic daily oral treatment, Day −1 through Day 22, dose dependence) is “dose-dependent reduction of EAE clinical scores”.
